Experimental findings from patent US20260139017A1, “COMPOSITIONS AND METHODS USING REELIN IN ALZHEIMER'S DISEASE” (The General Hospital Corporation, priority 2022, published 2026) are described below.

“Also recorded” adds a separate entry of the source.

The nature of assay [1]: Surface plasmon resonance (SPR) binding of CTR-RELN peptides to heparin-coated chip. The procedure: Surface plasmon resonance assay (SPR) was used for performing binding kinetics using a Biacore 3000 Instrument (GE Healthcare) at 25° C. following previously published protocols (7 24) as fee-for-service by Precision Antibody (Maryland, USA). Biotin-labeled heparin (B9806, Sigma Aldrich) was covalently linked to streptavidin-coated chip and unoccupied sites were blocked with biocytin. Antigen was flowed over the chip using a range of single analyte concentrations prepared in DPBS buffer and using a flow rate of 30 μL/min. Binding of antigen to the ligand was monitored in real time to obtain on (ka) and off (kd) rates. The equilibrium constant (KD) was calculated from the observed ka and kd. Accuracy of the SPR analysis was determined via Chi square (χ2) analysis as described in the statistical analysis section. We included in the analyses the WT and H3447R peptides and peptides with the hypothetical H3447D change ([…])(SEQ ID NO:57) and the H3447K change ([…])(SEQ ID NO:58), also produced and purified by Innovagen (Sweden).
Surface plasmon resonance assay (SPR) was used for performing binding kinetics using a Biacore 3000 Instrument (GE Healthcare) at 25° C. following previously published protocols 34 24 fee-for-service by Precision Antibody (Maryland, USA). Heparin was covalently linked to streptavidin coated chip at 13 response units (RU) concentration and unoccupied sites were blocked with biocytin. Antigen was flowed over the chip using a range of single analyte concentrations prepared in DPBS buffer and using a flow rate of 30 μL/min. Binding of antigen to the ligand was monitored in real time to obtain on (ka) and off (kd) rates. The equilibrium constant (KD) was calculated from the observed ka and kd. Accuracy of the SPR analysis was determined via Chi square (2) analysis as described in the statistical analysis section.

Assay [2] is described as follows: Heparin-sepharose affinity column chromatography, NaCl step gradient. It counts as binding. The method, then:
We tested changes in binding to heparin of RELN variants chromatographically using an optimized version of a protocol previously published by our laboratory (1). Briefly, after equilibration of the heparin column (BioVision 6554-1) at R.T., columns were washed with five volumes of degassed 20 mM TRIS-HCl buffer (pH 7.5). Recombinant C-terminus RELN peptides were produced and purified by Innovagen (Sweden): (WT) […](SEQ ID NO:56), and (H3447R) […](SEQ ID NO:53). One mL of 50 μg/mL peptide (H3447 or WT, and H3447R) was recycled through the column five times and the last flow through collected for further analysis. The column was washed five times with the same buffer and the protein eluted using a 0.05 M step gradient of NaCl in 20 mM Tris-HCl (0-1M, one mL per fraction). To ensure the complete release of the protein, the column was washed with five M NaCl 20 mM Tris-HCl. Three independent experiments were conducted for C-terminus RELN WT and H3447R. All eluted fractions were analyzed spectroscopically by reading the absorbance at 280 nm using Nanodrop 2000 Spectrophotometer. Blank corrected fractions were subsequently analyzed using GraphPad Prism 8.
To assess Reelin-heparin binding affinity, Reelin variants were run on a heparin column with steps of 0.05M in a range of 0.05-1M NaCl over 20 1 mL column volumes in 20 mM Tris HCl, as described in Arboleda et. al 2019 (2). Sample fractions were eluted at an increasing NaCl step size to determine the ionic strength needed to disrupt the binding between Reelin and heparin. Therefore, the stronger the interaction, the higher concentration of salt would be needed to disrupt the bond.

With “RKQNYMMNFSRQHGLRRFYNRRRRSLRRYP [CTR-RELN H3447R]”, the “heparin affinity/interaction relative to WT, in words” value in assay [1] (SPR kinetic constants) is “about twice”. Moreover, the “interaction/affinity with heparin relative to WT” value in assay [1] (SPR, kinetic data, vs RELN WT peptide) is recorded as roughly 2 fold. Moreover, the “NaCl concentration of peak eluted fraction from heparin column” value in assay [2] (0.05 M NaCl step gradient in 20 mM Tris HCl, UV 280 nm) was 0.7 M NaCl. For the same sequence, the “binding to and release from heparin column” value in assay [2] (affinity chromatography, NaCl gradient) was “bound to heparin; also recorded: required higher NaCl salt concentrations to be released”.
